According to ChEMBL document CHEMBL1201862, “PubChem BioAssay data set” (2004):
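Briefly, cells in 96-well plates were exposed to five compound concentrations for 48 h, and endpoints were estimated by linear interpolation. The concentration for 50% growth inhibition is given as GI50.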 Active and inactive are the calls of the source. No stated cut-off is given here; in the data, active = GI50 up to about 1.1 µM and inactive = higher.

Assays:
Test in all cases: NCI tumour cell line growth inhibition, 48 h
SNB-19 = tested on: SNB-19
786-0 = tested on: 786-0
HCT-116 = tested on: HCT-116
NCI-H522 = tested on: NCI-H522
HOP-92 = tested on: HOP-92
HCT-15 = tested on: HCT-15
UACC-257 = tested on: UACC-257
HT-29 = tested on: HT-29
A549 = tested on: A549
RXF 393 = tested on: RXF 393
ACHN = tested on: ACHN
Malme-3M = tested on: Malme-3M
OVCAR-3 = tested on: OVCAR-3
EKVX = tested on: EKVX
NCI-H23 = tested on: NCI-H23
UO-31 = tested on: UO-31
SW-620 = tested on: SW-620
OVCAR-5 = tested on: OVCAR-5
SNB-75 = tested on: SNB-75
U-251 = tested on: U-251

Row | SMILES | GI50 (SNB-19) | GI50 (786-0) | GI50 (HCT-116) | GI50 (NCI-H522) | GI50 (HOP-92) | GI50 (HCT-15) [µM] | GI50 (UACC-257) | GI50 (HT-29) | GI50 (A549) | GI50 (RXF 393) | GI50 (ACHN) | GI50 (Malme-3M) | GI50 (OVCAR-3) | GI50 (EKVX) | GI50 (NCI-H23) | GI50 (UO-31) | GI50 (SW-620) | GI50 (OVCAR-5) | GI50 (SNB-75) | GI50 (U-251)
1 | CN1/C(=C/C=C/C=C/C=C2C(=O)c3ccccc3C2=O)C(C)(C)c2ccccc21 | > 100 µM (inactive) | > 100 µM (inactive) | > 100 µM (inactive) | 28.6 µM (inactive) | 15.7 µM (inactive) | 40.2 | 17.5 µM (inactive) | > 100 µM (inactive) | 7 µM (inactive) | 24.2 µM (inactive) | 25.8 µM (inactive) | 29.4 µM (inactive) | 20 µM (inactive) | 30.8 µM (inactive) | 41 µM (inactive) | 37.2 µM (inactive) | > 100 µM (inactive) | 33 µM (inactive) | 48.6 µM (inactive) | –
2 | CNc1cc2oc(=O)cc(C)c2cc1C | > 100 µM (inactive) | > 100 µM (inactive) | > 100 µM (inactive) | > 100 µM (inactive) | 89.3 µM (inactive) | > 100 | > 100 µM (inactive) | > 100 µM (inactive) | > 100 µM (inactive) | > 100 µM (inactive) | > 100 µM (inactive) | > 100 µM (inactive) | > 100 µM (inactive) | 59.6 µM (inactive) | > 100 µM (inactive) | – | > 100 µM (inactive) | > 100 µM (inactive) | 85.3 µM (inactive) | > 100 µM (inactive)
3 | O=C1N(c2ccccc2)C(=O)C2(SC=NN2Cc2ccccc2)N1c1ccccc1 (stereo not given) | > 100 µM (inactive) | > 100 µM (inactive) | > 100 µM (inactive) | > 100 µM (inactive) | > 100 µM (inactive) | – | > 100 µM (inactive) | > 100 µM (inactive) | > 100 µM (inactive) | > 100 µM (inactive) | > 100 µM (inactive) | > 100 µM (inactive) | > 100 µM (inactive) | > 100 µM (inactive) | > 100 µM (inactive) | > 100 µM (inactive) | > 100 µM (inactive) | – | > 100 µM (inactive) | > 100 µM (inactive)
4 | CCOc1cccc2ccc[n+](CC)c12 | > 100 µM (inactive) | > 100 µM (inactive) | 37.1 µM (inactive) | 16.4 µM (inactive) | 61 µM (inactive) | – | 57.9 µM (inactive) | 47.3 µM (inactive) | 48.6 µM (inactive) | > 100 µM (inactive) | > 100 µM (inactive) | > 100 µM (inactive) | 56.1 µM (inactive) | > 100 µM (inactive) | 15.9 µM (inactive) | > 100 µM (inactive) | 81.3 µM (inactive) | > 100 µM (inactive) | > 100 µM (inactive) | –
5 | O=C1OC(c2ccccc2)=N/C1=C\c1ccc(Cl)cc1 | > 100 µM (inactive) | > 100 µM (inactive) | > 100 µM (inactive) | 50.6 µM (inactive) | > 100 µM (inactive) | > 100 | > 100 µM (inactive) | > 100 µM (inactive) | > 100 µM (inactive) | > 100 µM (inactive) | > 100 µM (inactive) | – | > 100 µM (inactive) | > 100 µM (inactive) | > 100 µM (inactive) | > 100 µM (inactive) | > 100 µM (inactive) | > 100 µM (inactive) | > 100 µM (inactive) | > 100 µM (inactive)
6 | COCN1C(N)=C(C(=O)OC(C)(C)C)C2=CC(=O)C=CC21C (stereo not given) | > 100 µM (inactive) | 11.9 µM (inactive) | 7.83 µM (inactive) | 3.4 µM (inactive) | 5.14 µM (inactive) | 13.9 | 10.6 µM (inactive) | 6.64 µM (inactive) | 18.9 µM (inactive) | 6.25 µM (inactive) | 7.01 µM (inactive) | 9.75 µM (inactive) | – | 16.5 µM (inactive) | 15.4 µM (inactive) | 13.6 µM (inactive) | 4.99 µM (inactive) | 18.1 µM (inactive) | 19.1 µM (inactive) | 17 µM (inactive)
7 | O=C1c2c(Br)sc(Br)c2[C@@H](NC(=O)C(F)(F)F)C1Br (stereo not given in full) | 13 µM (inactive) | 2.13 µM (inactive) | – | 2.03 µM (inactive) | 2.3 µM (inactive) | 1.83 | 1.51 µM (inactive) | 2.37 µM (inactive) | 17.1 µM (inactive) | 2.14 µM (inactive) | 2.5 µM (inactive) | 2.24 µM (inactive) | 3.32 µM (inactive) | 3.57 µM (inactive) | 2.53 µM (inactive) | 5.92 µM (inactive) | 2.7 µM (inactive) | 10.7 µM (inactive) | 4.92 µM (inactive) | 2.93 µM (inactive)
8 | C[C@@H](c1ccccc1)N(CC#N)C1CCC[C@H]1O (stereo not given in full) | > 100 µM (inactive) | > 100 µM (inactive) | > 100 µM (inactive) | > 100 µM (inactive) | > 100 µM (inactive) | > 100 | > 100 µM (inactive) | > 100 µM (inactive) | > 100 µM (inactive) | > 100 µM (inactive) | > 100 µM (inactive) | > 100 µM (inactive) | > 100 µM (inactive) | > 100 µM (inactive) | > 100 µM (inactive) | > 100 µM (inactive) | > 100 µM (inactive) | – | > 100 µM (inactive) | > 100 µM (inactive)
